In US6784184B2, “5-(arylsulfonyl)-,5-(arylsulfinyl), and 5-(arylsulfanyl)-thiazolidine-2,4-diones useful for inhibition of farnesyl-protein transferase” (Wyeth Holdings Corporation, priority 2001, dated 2004):

Tests used:
[1] = molecular target: FPTase (H-Ras substrate) (UniProt P29702+P49355); assay: in vitro FTase Inhibition Assay, H-Ras as substrate for farnesylation; format: biochemical; settings: H-Ras used as substrate for farnesylation
Procedure: (§1) The ability of the compounds of this invention to inhibit FPTase was evaluated in the standard pharmacological in vitro test procedures described below.
(§2) Methods—1. […] 2. Solution #1 is added to FPTase reaction in a volume of […]. 3. Standard reaction mix, […], contains 50 mM Tris (7.5), […], 3 mM MgCl2, 20 mM KCl, 5 mM DTT, 0.2% octyl-B-glucoside, 1% DMSO, […], 10 ng FPTase, and various concentrations of FPTase inhibitors. 4. Incubate for 30-90 min at […] 5. Stop reactions with TCA/SDS (6%/2%), hold at 4° C. for 45-60 min. 6. Filter by manifold or 96 well plate, wash filter 3-5× with TCA (6%). 7. Add scintillant to filters, measure ^3H-FPP incorporation into Ras protein.
(§3) (cpm from precipitated Ras with test compounds)−(background cpm)×100=% inhibition.
(§4) (cpm from precipitated Ras without test compounds)−(background cpm)

[2] = molecular target: FPTase (K-Ras substrate) (UniProt P29702+P49355); assay: in vitro FTase Inhibition Assay, K-Ras as substrate for farnesylation; format: biochemical; settings: K-Ras used as substrate for farnesylation
Procedure: as §1, §2, §3, §4

Row | Molecule | IC50 [1] | IC50 [2]
1 | COc1ccc(S(=O)(=O)C2(CCCC#Cc3ccc(NC(=O)OC(C)(C)C)cc3C)SC(=O)NC2=O)cc1 (centres unmarked) [Example 149, (4-{5-[5-(4-Methoxybenzenesulfonyl)-2,4-dioxo-thiazolidin-5-yl]pent-1-ynyl}-3-methylphenyl)carbamic Acid tert-Butyl Ester] | 450 to 500 nM | 1000 to 4900 nM
2 | CC(=O)Nc1ccc(S(=O)(=O)C2(CCCC#Cc3ccc(Cl)cc3)SC(=O)NC2=O)cc1 (centres unmarked) [Example 108, N-(4-{5-[5-(4-Chlorophenyl)pent-4-ynyl]-2,4-dioxothiazolidine-5-sulfonyl}phenyl)acetamide] | 130 to 180 nM | ≥ 9000 nM
3 | COc1ccc(S(=O)(=O)C2(CCCC#Cc3cc(NC(=O)Nc4ccc(Cl)cc4)ccc3C)SC(=O)NC2=O)cc1 (centres unmarked) [Example 189, N-(4-Chlorophenyl)-N′-[3-(5-{5-[(4-methoxy-phenyl)sulfonyl]-2,4-dioxo-1,3-thiazolidin-5-yl}-1-pentynyl)-4-methylphenyl]urea] | 100 nM | 1200 nM
4 | COc1ccc(S(=O)(=O)C2(CCCC#Cc3cc(NC(=O)OCC(C)(C)C)ccc3C)SC(=O)N(C(=O)OCC(C)(C)C)C2=O)cc1 (centres unmarked) [Example 230, Neopentyl 5-[(4-methoxyphenyl)sulfonyl]-5-[5-(2-methyl-5-{[(neopentyloxy)carbonyl]-amino}phenyl)pent-4-ynyl]-2,4-dioxo-1,3-thiazolidine-3-carboxylate] | 3 to 3.5 nM | 20 to 500 nM
5 | COc1ccc(S(=O)(=O)C2(CCCC#Cc3cc(C)ccc3C)SC(=O)NC2=O)cc1 (centres unmarked) [Example 135, 5-[5-(2,5-Dimethylphenyl)pent-4-ynyl]-5-(4-methoxybenzenesulfonyl)-thiazolidine-2,4-dione] | 20 to 32 nM | 1900 to 2100 nM
6 | O=C1NC(=O)C(CCCC#Cc2ccc(Cl)cc2)(S(=O)(=O)c2ccc3ccccc3c2)S1 (centres unmarked) [Example 107, 5-[5-(4-Chlorophenyl)pent-4-ynyl]-5-(naphthalene-2-sulfonyl)-thiazolidine-2,4-dione] | 180 to 200 nM | 620 to 700 nM
7 | COc1ccc(S(=O)(=O)C2(CCCC#Cc3cc([N+](=O)[O-])ccc3C)SC(=O)NC2=O)cc1 (centres unmarked) [Example 122, 5-(4-Methoxybenzenesulfonyl)-5-[5-(2-methyl-5-nitrophenyl)pent-4-ynyl]-thiazolidine-2,4-dione] | 30 to 50 nM | 230 to 1000 nM
8 | COc1ccc(S(=O)(=O)C2(CCCC#Cc3cc(C(=O)NC(C)(C)C)ccc3C)SC(=O)NC2=O)cc1 (centres unmarked) [Example 152, N-tert-Butyl-3-{5-[5-(4-methoxy-benzenesulfonyl)-2,4-dioxothiazol-idin-5-yl]pent-1-ynyl}-4-methyl-benzamide] | 11 to 16 nM | 100 to 230 nM
9 | COc1ccc(S(=O)(=O)C2(CCCC#Cc3ccc(NC(=O)OC(C)(C)C)cc3)SC(=O)NC2=O)cc1 (centres unmarked) [Example 145, (4-{5-[5-(4-Methoxybenzensulfonyl)-2,4-dioxothiazolidin-5-yl]pent-1-ynyl}phenyl)carbamic Acid tert-Butyl Ester] | 1200 to 1700 nM | 5600 to 10000 nM
10 | O=C1NC(=O)C(CCCC#Cc2ccc(Cl)cc2)(S(=O)(=O)c2cccc3ccccc23)S1 (centres unmarked) [Example 113, 5-[5-(4-Chlorophenyl)pent-4-ynyl]-5-(naphthalene-1-sulfonyl)-thiazolidine-2,4-dione] | 50 to 60 nM | 750 to 800 nM
11 | Cc1ccc([N+](=O)[O-])cc1C#CCCCC1(S(=O)(=O)c2ccc(Oc3ccccc3)cc2)SC(=O)NC1=O (centres unmarked) [Example 124] | 52 to 80 nM | 910 to 1300 nM
12 | 5-[5-(4-Chloro-2-methylphenyl)-pent-4-ynyl]-5-(4-iodobenzene-sulfonyl)-thiazolidine-2,4-dione [Example 141] | 21 to 32 nM | 300 to 340 nM
13 | COc1ccc(S(=O)(=O)C2(CCCC#Cc3cccc([N+](=O)[O-])c3)SC(=O)NC2=O)cc1 (centres unmarked) [Example 118, 5-(4-Methoxybenzenesulfonyl)-5-[5-(3-nitrophenyl)pent-4-ynyl]-thiazolidine-2,4-dione] | 70 nM | 1900 nM
14 | Cc1ccc(Cl)cc1C#CCCCC1(S(=O)(=O)c2ccc(OC(F)(F)F)cc2)SC(=O)NC1=O (centres unmarked) [Example 139, 5-[5-(5-Chloro-2-methylphenyl)pent-4-ynyl]-5-(4-trifluoromethoxybenzene-sulfonyl)thiazolidine-2,4-dione] | 140 to 170 nM | 600 to 5000 nM
15 | COc1ccc(S(=O)(=O)C2(CCCC#Cc3ccc(-n4cccc4)cc3)SC(=O)NC2=O)cc1 (centres unmarked) [Example 161, 5-(4-Methoxybenzenesulfonyl)-5-[5-(4-pyrrol-1-yl-phenyl)pent-4-ynyl]-thiazolidine-2,4-dione] | 900 nM | –
16 | Cc1ccc(S(=O)(=O)C2(CCCC#Cc3ccc(C(C)(C)C)cc3)SC(=O)NC2=O)cc1 (centres unmarked) [Example 157, 5-[5-(4-tert-Butylphenyl)pent-4-ynyl]-5-(toluene-4-sulfonyl)-thiazolidine-2,4-dione] | 270 nM | 5000 nM

Row | Molecule | IC50 [1] | IC50 [2]
17 | Cc1ccc([N+](=O)[O-])cc1C#CCCCC1(S(=O)(=O)c2ccc(I)cc2)SC(=O)NC1=O (centres unmarked) [Example 125, 5-(4-Iodobenzenesulfonyl)-5-[5-(2-methyl-5-nitrophenyl)pent-4-ynyl]-thiazolidine-2,4-dione] | 30 nM | 400 nM
18 | COc1ccc(S(=O)(=O)C2(CCCC#Cc3ccc([N+](=O)[O-])cc3)SC(=O)NC2=O)cc1 (centres unmarked) [Example 121, 5-(4-Methoxybenzenesulfonyl)-5-[5-(4-nitrophenyl)pent-4-ynyl]-thiazolidine-2,4-dione] | 120 nM | 1600 nM
19 | COc1ccc(S(=O)(=O)C2(CCCC#Cc3ccc(Cl)cc3C)SC(=O)NC2=O)cc1 (centres unmarked) [Example 142, 5-[5-(4-Chloro-2-methylphenyl)pent-4-ynyl]-5-(4-methoxybenzene-sulfonyl)-thiazolidine-2,4-dione] | 17 to 30 nM | 40 to 1000 nM
20 | COc1ccc(S(=O)(=O)C2(CCCC#Cc3cccs3)SC(=O)NC2=O)cc1 (centres unmarked) [Example 166, 5-(4-Methoxybenzenesulfonyl)-5-(5-thiophen-2-yl-pent-4-ynyl)-thiazolidine-2,4-dione] | 150 nM | 5300 nM
21 | Cc1cc(Br)ccc1C#CCCCC1(S(=O)(=O)c2ccc(I)cc2)SC(=O)NC1=O (centres unmarked) [Example 144, 5-[5-(4-Bromo-2-methylphenyl)pent-4-ynyl]-5-(4-iodobenzenesulfonyl)-thiazolidine-2,4-dione] | 40 to 41 nM | 320 to 550 nM
22 | COc1ccc(S(=O)(=O)C2(CCCC#Cc3cc(NC(=O)OCc4ccc([N+](=O)[O-])cc4)ccc3C)SC(=O)N(C(=O)OCc3ccc([N+](=O)[O-])cc3)C2=O)cc1 (centres unmarked) [Example 227, 4-Nitrobenzyl 5-[(4-methoxyphenyl)sulfonyl]-5-{5-[2-methyl-5-({[(4-nitrobenzyl)oxy]carbonyl}amino)phenyl]pent-4-ynyl}-2,4-dioxo-1,3-thiazolidine-3-carboxylate] | 7 to 10 nM | 210 to 400 nM
23 | COc1ccc(S(=O)(=O)C2(CCCC#Cc3ccc(Cl)cc3)SC(=O)NC2=O)cc1 (centres unmarked) [Example 97, 5-[5-(4-Chlorophenyl)pent-4-ynyl]-5-(4-methoxyphenylsulfonyl)-thiazolidine-2,4-dione] | 75 to 150 nM | 3500 to 5500 nM
24 | COc1ccc(S(=O)(=O)C2(CCCC#Cc3cccc(N)c3)SC(=O)NC2=O)cc1 (centres unmarked) [Example 220, 5-[5-(3-Aminophenyl)pent-4-ynyl]-5-(4-methoxybenzenesulfonyl)-thiazolidine-2,4-dione] | 90 nM | 3000 nM
25 | COc1ccc(S(=O)(=O)C2(CCCC#Cc3cc(F)cc([N+](=O)[O-])c3)SC(=O)NC2=O)cc1 (centres unmarked) [Example 133, 5-[5-(3-Fluoro-5-nitrophenyl)pent-4-ynyl]-5-(4-methoxybenzene-sulfonyl)-thiazolidine-2,4-dione] | 40 to 200 nM | 54 to 1000 nM
26 | CCCCOC(=O)Nc1ccc(C)c(C#CCCCC2(S(=O)(=O)c3ccc(OC)cc3)SC(=O)NC2=O)c1 (centres unmarked) [Example 181, (3-{5-[5-(4-Methoxybenzenesulfonyl)-2,4-dioxothiazolidin-5-yl]pent-1-ynyl}-4-methylphenyl)carbamic Acid Butyl Ester] | 10 to 32 nM | 100 to 130 nM
27 | O=C1NC(=O)C(CCCC#Cc2ccc(Cl)cc2)(Sc2ccc(F)cc2)S1 (centres unmarked) [Example 96, 5-[5-(4-Chlorophenyl)pent-4-ynyl]-5-(4-fluorophenylsulfanyl)-thiazolidine-2,4-dione] | 700 nM | –
28 | COc1ccc(S(=O)(=O)C2(CC#Cc3cccnc3)SC(=O)NC2=O)cc1 (centres unmarked) [Example 167, 5-(4-Methoxybenzenesulfonyl)-5-(3-pyridin-3-ylprop-2-ynyl)-thiazolidine-2,4-dione] | 1500 nM | –
29 | COc1ccc(S(=O)(=O)C2(CCCC#Cc3ccc(Cl)cc3)SC(=O)N(CCCn3ccnc3)C2=O)cc1 (centres unmarked) [Example 233, 5-[5-(4-Chlorophenyl)pent-4-ynyl]-3-(3-imidazol-1-yl-propyl)-5-(4-methoxybenzenesulfonyl)-thiazolidine-2,4-dione] | 2900 nM | –
30 | O=C1NC(=O)C(CCCC#Cc2ccc(-n3cccc3)cc2)(S(=O)(=O)c2ccc(OC(F)(F)F)cc2)S1 (centres unmarked) [Example 163, 5-[5-(4-Pyrrol-1-ylphenyl)pent-4-ynyl]-5-(4-trifluoromethoxybenzenesulfonyl)-thiazolidine-2,4-dione] | 1300 nM | –
31 | Cc1ccc(S(=O)(=O)C2(CC#Cc3cccs3)SC(=O)NC2=O)cc1 (centres unmarked) [Example 168, 5-(3-Thiophen-2-yl-prop-2-ynyl)-5-(toluene-4-sulfonyl)-thiazolidine-2,4-dione] | 280 nM | –
